Test results as given in patent publication US6861432B2, “Piperazine derivatives that destabilize androgen receptors” (Schering Aktiengesellschaft, priority 2001, dated 2005).
pIC50: −log10 of the molar value. Read-outs that look alike come from different tables or passages of the source.

What was measured:
androgen receptor = target: T1, androgen receptor (Homo sapiens, UniProt P10275, T878A); test: cell-based; settings: 48 h; for remaining activity at 10 µM / remaining activity at 1 µM: LNCaP; for remaining activity at 10 µM: read-out: AR Content [%] At 10 μM; for remaining activity at 1 µM: read-out: AR Content [%] At 1 μM
T1 construct: 2*10^6 LNCaP cells in 6 ml of RPMI 1640 without phenol red are grown; endogenous in cells; host or cells: LNCaP (human prostate cell line)
T1 sequence (P10275 1-920 T878A): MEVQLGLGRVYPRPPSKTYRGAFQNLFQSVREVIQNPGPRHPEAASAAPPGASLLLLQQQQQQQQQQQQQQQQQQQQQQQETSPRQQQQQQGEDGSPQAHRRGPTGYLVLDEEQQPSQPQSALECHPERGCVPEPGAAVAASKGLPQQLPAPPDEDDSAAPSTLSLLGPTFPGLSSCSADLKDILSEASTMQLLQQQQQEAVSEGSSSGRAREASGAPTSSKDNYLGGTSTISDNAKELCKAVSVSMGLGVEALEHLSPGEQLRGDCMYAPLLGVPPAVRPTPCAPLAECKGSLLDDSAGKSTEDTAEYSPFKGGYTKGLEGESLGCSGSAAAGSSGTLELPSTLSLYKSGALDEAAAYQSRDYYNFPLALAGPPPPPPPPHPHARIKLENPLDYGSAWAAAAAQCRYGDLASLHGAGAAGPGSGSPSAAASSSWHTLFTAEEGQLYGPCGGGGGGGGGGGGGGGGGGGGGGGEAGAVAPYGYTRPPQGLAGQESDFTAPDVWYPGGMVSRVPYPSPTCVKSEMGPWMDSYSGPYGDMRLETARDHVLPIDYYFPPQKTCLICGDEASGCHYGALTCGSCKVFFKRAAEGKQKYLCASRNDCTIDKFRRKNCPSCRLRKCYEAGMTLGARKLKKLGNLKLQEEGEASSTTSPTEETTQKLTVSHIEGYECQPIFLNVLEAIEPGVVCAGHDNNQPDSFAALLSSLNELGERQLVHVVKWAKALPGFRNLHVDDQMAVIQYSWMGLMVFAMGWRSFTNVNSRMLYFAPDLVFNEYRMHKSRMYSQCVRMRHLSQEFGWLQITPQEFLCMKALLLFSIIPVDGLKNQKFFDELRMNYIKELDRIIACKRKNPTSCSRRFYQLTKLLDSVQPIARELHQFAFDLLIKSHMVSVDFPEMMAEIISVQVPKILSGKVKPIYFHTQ

LNCaP cells = test: Model 2: Inhibition of the proliferation of LNCaP cells (crystal violet assay; antagonism with 0.1 nM R1881, agonism without); format: cell-based, human; settings: for pIC50: LNCaP proliferation in the presence of 0.1 nM R1881, 7-8 days, read-out: IC50 [10^−7 M]; for % Inhibition at 1 μM: LNCaP proliferation, 1 μM substance, compared to cell growth in the presence of 0.1 nM R1881
MaTu cells = test: Model 3: Proliferation of non-prostate cells, MaTu; format: cell-based, human; settings: 10 μM, 3-day treatment; percent of cell growth of solvent control
Method: (§1) To examine the growth-inhibiting action of test substances in cells that are not of prostatic origin, MaTu cells, MaTu/Adr cells, HaCaT cells and A431 cells were treated with test substances, whereby
(§2) Depending on the cell line, 1000-4000 cells/well were grown in RPMI 1640 medium (A431; MaTu and MaTu/Adr) or DMEM/HAM'SF12 medium (HaCaT) without phenol red with 2 mmol of L-glutamine and 10% CCS, and after a 24-hour incubation, they were treated with various concentrations of test substances diluted in culture medium. After a 3-day treatment period, the number of cells was determined by crystal violet assay, as in Model 2. The solvent control contained 0.1% ethanol.
(§3) The substances were tested at a concentration of 10 μM, and the data correspond to the proportion, in percent, of the cell growth of the solvent control. It turns out that the test substances exerted no inhibitory action on the four different cell lines or, in individual cases, only a slight inhibitory action.

MaTu/Adr cells = test: Model 3: Proliferation of non-prostate cells, MaTu/Adr; format: cell-based, human; settings: 10 μM, 3-day treatment; percent of cell growth of solvent control
Method: as §1, §2, §3

A431 cells = test: Model 3: Proliferation of non-prostate cells, A431; format: cell-based, human; settings: 10 μM, 3-day treatment; percent of cell growth of solvent control
Method: as §1, §2, §3

HaCaT cells = test: Model 3: Proliferation of non-prostate cells, HaCaT; format: cell-based, human; settings: 10 μM, 3-day treatment; percent of cell growth of solvent control
Method: as §1, §2, §3

seminal vesicles = test: Model 4: Antiandrogenic action on testosterone-stimulated growth of accessory sexual glands of castrated mice; format: in vivo; settings: testosterone propionate 0.03 mg/mouse, test substance 2 × 30 mg/kg s.c., 7 days, CPA 30 mg/kg s.c., bicalutamide from preceding tests
Method: The function and the size of accessory sexual glands (prostate and seminal vesicles) depend on androgens. In castrated animals, a growth of these (organs is induced by androgen administration. The simultaneous treatment with antiandrogens inhibits this growth, depending on the dose.
To examine the test substances, the mice were castrated. The treatment with testosterone propionate (0.03 mg/mouse) and the test substances (formulated 2×daily 30 mg/kg s.c. in benzyl benzoate-castor oil (10:90)) was on the same day. The treatment was carried out over 7 days and at the end of the test, the weights of the seminal vesicles and prostates were determined. The inhibition, in percent, of the seminal vesicle growth was calculated relative to the control groups (with and without testosterone). As a reference substance, cyproterone acetate (30 mg/kg s.c.) was used.

SMILES: CC1=C(CCCCCCN2CCN(C(=O)Nc3ccccc3)CC2)C(=O)N(c2ccc(C#N)c(C(F)(F)F)c2)C1=O [Example 315, 4-[6-[1-[4-Cyano-3-(trifluoromethyl)phenyl]-2,5-dihydro-4-methyl-2,5-dioxo-1H-pyrrol-3-yl]hexyl]-N-phenylpiperazine-1-carboxamide]
- remaining activity at 10 µM (androgen receptor): 52%
- pIC50 (LNCaP cells; Homo sapiens): 6.42
- Proliferation in the Cell Line MaTu (MaTu cells): 95 +/− 7%
- Proliferation in the Cell Line MaTu/Adr (MaTu/Adr cells): 90 +/− 10%
- Proliferation in the Cell Line A431 (A431 cells): 95 +/− 5%
- Proliferation in the Cell Line HaCaT (HaCaT cells): 102 +/− 6%

SMILES: CCS(=O)(=O)N1CCN(CCCCCN2C(=S)N(c3ccc(C#N)c(C(F)(F)F)c3)C(=O)C2(C)C)CC1 [Example 629, 4-[3-[5-[4-(Ethylsulfonyl)piperazin-1-yl]pentyl]-4,4-dimethyl-5-oxo-2-thioxoimidazolidin-1-yl]-2-(trifluoromethyl)benzonitrile]
- remaining activity at 1 µM (androgen receptor): 54%
- pIC50 (LNCaP cells; Homo sapiens): 6.85
- % Inhibition of the MSB Growth (seminal vesicles): 98%

SMILES: COc1ccccc1C(=O)N1CCN(CCCCCCC2=C(C)C(=O)N(c3ccc(C#N)c(C(F)(F)F)c3)C2=O)CC1 [Example 248, 4-[2,5-Dihydro-3-[6-[4-(2-methoxybenzoyl)piperazin-1-yl]hexyl]-4-methyl-2,5-dioxo-1H-pyrrol-1-yl]-2-(trifluoromethyl)benzonitrile]
- remaining activity at 1 µM (androgen receptor): 51%
- remaining activity at 10 µM (androgen receptor): 22%
- pIC50 (LNCaP cells; Homo sapiens): 6.60
- Proliferation in the Cell Line MaTu (MaTu cells): 98 +/− 4%
- Proliferation in the Cell Line MaTu/Adr (MaTu/Adr cells): 88 +/− 4%
- Proliferation in the Cell Line A431 (A431 cells): 102 +/− 5%
- Proliferation in the Cell Line HaCaT (HaCaT cells): 104 +/− 7%

SMILES: CC(C)(O)C(=O)N1CCN(CCCCCCN2C(=S)N(c3ccc(C#N)c(C(F)(F)F)c3)C(=O)C2(C)C)CC1 [Example 656]
- pIC50 (LNCaP cells): 7.59
- % Inhibition at 1 μM (LNCaP cells): 99%

SMILES: CC(C)C(=O)N1CCN(CCCCN2C(=S)N(c3ccc(C#N)c(C(F)(F)F)c3)C(=O)C2(C)C)CC1 [Example 546, 4-[4,4-Dimethyl-3-[4-[4-(2-methyl-1-oxopropyl)piperazin-1-yl]butyl]-5-oxo-2-thioxoimidazolidin-1-yl]-2-(trifluoromethyl)benzonitrile]
- remaining activity at 1 µM (androgen receptor): 68%
- % Inhibition of the MSB Growth (seminal vesicles): 98%

SMILES: CC(=O)O[C@]1(C(C)=O)CC[C@H]2[C@@H]3C=C(Cl)C4=CC(=O)[C@@H]5C[C@@H]5[C@]4(C)[C@H]3CC[C@@]21C [CPA, 17-(acetyloxy)-6-chloro-1β,2β-dihydro-3′H-cyclopropa[1,2]pregna-1,4,6-triene-3,20-dione, reference compound]
- % Inhibition of the MSB Growth (seminal vesicles): 85%

SMILES: CC1(C)C(=O)N(c2ccc(C#N)c(C(F)(F)F)c2)C(=S)N1CCCCCCN1CCN(C(=O)C(F)(F)F)CC1 [Example 670, 4-[4,4-Dimethyl-5-oxo-2-thioxo-3-[6-[4-(trifluoracetyl)piperazin-1-yl]hexyl]-imidazolidin-1-yl]-2-(trifluoromethyl)-benzonitrile]
- pIC50 (LNCaP cells): 7.62
- % Inhibition at 1 μM (LNCaP cells): 96%

SMILES: CSC(=O)N1CCN(CCCCCCN2C(=S)N(c3ccc(C#N)c(C(F)(F)F)c3)C(=O)C2(C)C)CC1 [Example 696, S-Methyl 4-[6-[3-[4-cyano-3-(trifluoromethyl)phenyl]-5,5-dimethyl-4-oxo-2-thioxoimidazolidin-1-yl]hexyl]piperazine-1-carbothioate]
- remaining activity at 1 µM (androgen receptor): 60%
- % Inhibition of the MSB Growth (seminal vesicles): 87%

SMILES: CC1=C(CCCCN2CCN(C(=O)c3ccccc3Cl)CC2)C(=O)N(c2ccc(C#N)c(C(F)(F)F)c2)C1=O [Example 90, 4-[3-[4-[4-(2-Chlorobenzoyl)piperazin-1-yl]butyl]-2,5-dihydro-4-methyl-2,5-dioxo-1H-pyrrol-1-yl]-2-(trifluoromethyl)benzonitrile]
- remaining activity at 10 µM (androgen receptor): 34%
- Proliferation in the Cell Line MaTu (MaTu cells): 96 +/− 3%
- Proliferation in the Cell Line MaTu/Adr (MaTu/Adr cells): 80 +/− 2%
- Proliferation in the Cell Line A431 (A431 cells): 98 +/− 7%
- Proliferation in the Cell Line HaCaT (HaCaT cells): 102 +/− 12%

SMILES: CC1=C(CCCCCCN2CCN(S(=O)(=O)c3ccc(C)cc3)CC2)C(=O)N(c2ccc(C#N)c(C(F)(F)F)c2)C1=O [Example 297, 4-[2,5-Dihydro-3-methyl-4-[6-[4-[(4-methylphenyl)sulfonyl]piperazin-1-yl]hexyl]-2,5-dioxo-1H-pyrrol-1-yl]-2-(trifluoromethyl)benzonitrile]
- remaining activity at 10 µM (androgen receptor): 59%

SMILES: CC(C)C(=O)N1CCN(CCCCCCN2C(=S)N(c3ccc(C#N)c(C(F)(F)F)c3)C(=O)C2(C)C)CC1 [Example 653, 4-[4,4-Dimethyl-3-[6-[4-(2-methyl-1-oxopropyl)piperazin-1-yl]hexyl]-5-oxo-2-thioxoimidazolidin-1-yl]-2-(trifluoromethyl)benzonitrile]
- remaining activity at 1 µM (androgen receptor): 71%

SMILES: CC1=C(CCCCCCN2CCN(C(=O)Nc3c(Cl)cccc3Cl)CC2)C(=O)N(c2ccc(C#N)c(C(F)(F)F)c2)C1=O [Example 351]
- AR Content [%] At 10 μM (androgen receptor; LNCaP cells, 10 μM test substance, AR/actin as percentage of DMSO control): 61%

SMILES: CC1=C(CCCCCCN2CCN(C(=O)Nc3cccc(F)c3)CC2)C(=O)N(c2ccc(C#N)c(C(F)(F)F)c2)C1=O [Example 326, 4-[6-[1-[4-Cyano-3-(trifluoromethyl)phenyl]-2,5-dihydro-4-methyl-2,5-dioxo-1H-pyrrol-3-yl]hexyl]-N-(3-fluorophenyl)-piperazine-1-carboxamide]
- remaining activity at 10 µM (androgen receptor): 45%
